From US10898504B2, “Substituted nucleoside analogues for use as PRMT5 inhibitors” (Janssen Pharmaceutica NV, priority 2016, dated 2021)
“And” between values parts separate entries of the source, which are not always exact repeats. Equal entries are not always repeated.

How the values were obtained:
[1] = molecular target: T1, PRMT5-MEP50 enzyme (Homo sapiens, UniProt O14744); test: In vitro assay (Assay 1): PRMT5-MEP50 high throughput mass spectrometer assay, inhibition of SAH formation; format: biochemical; settings: individual measurements shown, read-out: pIC50 Assay 1 (converted)
T1 construct: One virus expresses full length human PRMT5 with Flag-tag at N-terminus
Source text: EXPERIMENTAL PROCEDURES IN VITRO ASSAY (ASSAY 1)
PRMT5-MEP50 enzyme was purchased from Charles River (Argenta). The enzyme complex was produced in insect cells (Sf9) infected simultaneously with two baculoviruses. One virus expresses full length human PRMT5 with Flag-tag at N-terminus, the second virus expresses full length MEP50 with His6-TEV cleavage at N-terminus. The protein was affinity purified using anti-Flag (M2) beads eluted with 3×FLAG peptide, followed by His-Select eluted with 0.5M imidazole. Eluted protein was then dialysed against tris-buffered saline (TBS) (pH 8.0) containing 20% glycerol and 3 mM dithiothreitol (DTT).
Full-length untagged human recombinant histone H2A (residues 1-130, Genbank Accession #NM_021052, MW=14.1 kDa) expressed in E. coli was purchased from Reaction Biology Corporation, Cat #HMT-11-146. Reagents used for making reaction buffer or stopping reaction were purchased including Tris base (Sigma Cat #T-1503), NaCl (Sigma Cat #RGF-3270), MgCl2 (Sigma Cat #M0250), DTT (Invitrogen Cat #15508-013) and Formic Acid (Riedel deHaen, Cat #33015)
High Throughput Mass Spectrometer Assay
PRMT5 catalyzes the sequential methylations of the terminal nitrogen atoms on the guanidine groups of arginine residues within proteins using co-substrate S-adenosyl-L-methionine (AdoMet, SAM), forming mono-methyl (MMA), symmetric-dimethyl arginine (sDMA) and S-adenosyl-L-homocysteine (AdoHcy, SAH). The enzyme activity was determined by following the product SAH formation using high throughput mass spectrometry (Agilent Rapidfire 300 System coupled to a Sciex 4000 series QTrapm triple-quad MS/MS). The reaction buffer was 20 mM Tris-HC, pH 8.5, 50 mM NaCl, 5 mM MgCl2 and 1 mM DTT. The reaction activity was stopped using 1% formic acid (final concentration).
The IC50 Studies were performed using eleven point dosing series made for each compound by serially diluted 1:2 in dimethyl sulfoxide (DMSO), with point 12 being a DMSO control. Compounds were first spotted to plates, and followed by addition of 2 μM SAM and 0.6 μM H2A (histone H2A) solution mixture. The same volume of enzyme solution was added to initiate the enzymatic reactions. The final concentrations of the reaction are at 1 μM SAM, 0.3 μM H2A and 10 nM enzyme. The reaction was incubated at 30° C. for 60 minutes (min) and then quenched by addition of formic acid to a final concentration of 1%. The inhibitions of SAH formation in the presence of compounds were calculated as a percentage of the control relative to the uninhibited reaction as a function of inhibitor concentration. The data were fit as follows: Y=Bottom+(Top−Bottom)/(1+10^((log IC50−X)*h))
where IC50 is the inhibitor concentration (same unit as X) at 50% inhibition and h is the Hill slope. Y is percent of inhibition, X is log of compound concentration. Bottom and Top are the plateaus in same units as Y.

[2] = tested on: A549 cells; test: PD assay (Assay 2): inhibition of nuclear symmetric Arginine dimethylation (SYM10 immunohistochemistry) in A549 cells; format: cell-based; settings: individual measurements shown; for IC50: Homo sapiens, A549, PD assay in A549 cells, read-out: pIC50 Assay 2 (converted); for pIC50 Assay 2: PD assay in A549 cells
Experimental: EXPERIMENTAL PROCEDURE PD ASSAY (ASSAY 2)
A549 cells (ATCC, Cat #CCL-185) were cultured in Dulbecco's Modified Eagle's Medium (DMEM) (Sigma, Cat #D5796), supplemented with 10% Fetal Calf Serum (FCS)(HyClone™, Cat #SV30160.03), 100 mM Sodium Pyruvate (Sigma, Cat #S8636), 200 mM L-Glutamine (Sigma, Cat #G7513) and 50 mg/mL Gentamycing (Gibco, Cat #15750-037).
Reagents used for buffers were purchased: Dulbecco's phosphate buffered saline (DPBS) without Ca/Mg (Sigma, Cat #D8537), phosphate buffered saline (PBS) 10× (Roche, Cat #11 666 789 001), Formalin solution 10% (Sigma, HT50-1-128-4L), MeOH 100% (Sigma, Cat #32213-2.5L), Triton X-100 (Acros, Cat #215680010), Bovine Serum Albumin (BSA) (Sigma, Cat #A2153), Alexa fluor 488 goat anti-rabbit antibody (Life Technologies, Cat #A11034), HCS CellMask Deep Red Stain (Life Technologies, Cat #H32721), Hoechst Stain (Life Technologies, Cat #33258), Anti-dimethyl-Arginine, sym (SYM10) antibody (Millipore, 07-412).
Immunohistochemistry Procedure
Cells were plated at 400 cells/40 μL/well in 384 well black plates μclear bottom (Perkin Elmer) and overnight incubated at 37° C., 5% CO2. The IC50 Studies were performed using nine point dosing series ranging from 10 μM to […] for each compound. 80 nL of the respective dilution of the compounds was added using the Labcyte POD 810 (Labcyte) reaching a final DMSO concentration of 0.2% in cell culture. After an incubation period of 48 h at 37° C. and 5% CO2, cells were fixed in 10% formalin solution for 15 min at r.t. and 20 min in ice-cold MeOH, after which they were washed 3× in DPBS. Subsequently, the cells were blocked for 1 h in blocking buffer (PBS+1% BSA and 0.5% Triton X-100) and incubated overnight at 4° C. with the SYM10 antibody diluted 1/2000 in blocking buffer. The cells were washed 3× with washing buffer (PBS+0.1% Triton X-100) and incubated with the Alexa fluor 488 goat anti-rabbit antibody diluted 1/200 in blocking buffer for 1 h at r.t. Subsequently, they were washed 3× with washing buffer and incubated for 30 min at r.t. with PBS containing a 1/5000 dilution of Hoechst Stain and a 1/5000 dilution of the HCS CellMask Deep Red Stain. After a final wash with PBS, the plates were imaged using the 10×W lens of the Opera® system (Perkin Elmer Life Sciences) using following settings (values in nm):
In the above equations, the following variable names are use: […]
In the above equations, the following controls were used for normalization: […]
Low control: minimum level of symmetrically dimethylated Arginines (cells treated with reference compound at 10 μM).
High control: maximum level of symmetrically dimethylated Arginines (DMSO treated cells).
IC50 and pIC50 (−log IC50) values were calculated using the appropriate software.
pIC50 values (Co. No. means compound number; n.d. means not determined).

T1 sequence (O14744 whole entry): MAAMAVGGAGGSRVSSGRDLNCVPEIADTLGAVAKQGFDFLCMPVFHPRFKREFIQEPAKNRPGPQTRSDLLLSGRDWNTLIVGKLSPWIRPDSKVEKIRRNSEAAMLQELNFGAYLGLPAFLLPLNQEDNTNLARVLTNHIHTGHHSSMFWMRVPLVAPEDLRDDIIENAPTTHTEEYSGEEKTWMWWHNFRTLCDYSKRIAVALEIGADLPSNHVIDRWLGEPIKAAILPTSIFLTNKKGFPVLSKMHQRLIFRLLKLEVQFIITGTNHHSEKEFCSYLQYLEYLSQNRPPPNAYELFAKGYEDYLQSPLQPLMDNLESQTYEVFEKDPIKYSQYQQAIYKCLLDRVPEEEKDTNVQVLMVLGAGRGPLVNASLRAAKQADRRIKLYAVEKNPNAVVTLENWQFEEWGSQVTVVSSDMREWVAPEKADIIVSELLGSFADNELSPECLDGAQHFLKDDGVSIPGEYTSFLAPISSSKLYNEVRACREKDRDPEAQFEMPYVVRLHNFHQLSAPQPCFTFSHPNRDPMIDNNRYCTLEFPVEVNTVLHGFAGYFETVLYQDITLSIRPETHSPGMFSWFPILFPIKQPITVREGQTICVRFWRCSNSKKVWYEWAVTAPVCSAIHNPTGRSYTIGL
T1 sequence (Q9BQA1 whole entry partner): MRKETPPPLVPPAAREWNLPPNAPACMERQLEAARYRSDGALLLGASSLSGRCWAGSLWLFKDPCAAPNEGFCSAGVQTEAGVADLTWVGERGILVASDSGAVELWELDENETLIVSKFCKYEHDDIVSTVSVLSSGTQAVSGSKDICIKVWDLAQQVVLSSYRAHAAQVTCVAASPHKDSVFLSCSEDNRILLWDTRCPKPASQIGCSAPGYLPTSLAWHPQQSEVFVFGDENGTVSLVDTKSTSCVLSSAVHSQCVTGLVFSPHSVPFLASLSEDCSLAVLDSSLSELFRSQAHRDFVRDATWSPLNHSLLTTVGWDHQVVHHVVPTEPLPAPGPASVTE

Row | SMILES | IC50 [1] | IC50 [2] [nM] | pIC50 Assay 2 [2]
1 | NC[C@@H]1CC(F)(F)CN1C[C@H]1O[C@@H](n2ccc3c(N)cccc32)[C@H](O)[C@@H]1O [Compound 71b] | 51.3 nM | 562 | 
2 | Nc1ncnc2c1ncn2[C@@H]1O[C@H](CN2CCC3(CCNCC3)C2)[C@@H](O)[C@H]1O [Compound 75] | 39800 nM | > 10000 | 
3 | Nc1ncnc2c1ncn2[C@@H]1O[C@H](CN2CCC3(CCCN3)C2)[C@@H](O)[C@H]1O (stereo partly shown) [Compound 78] | 2820 nM | > 10000 | 
4 | Nc1ncnc2c1ncn2[C@@H]1O[C@H](CN2CC3(CCCNC3)C2)[C@@H](O)[C@H]1O [Compound 79] | 21400 nM | > 10000 | 
5 | Nc1ncnc2c1ncn2[C@@H]1O[C@H](CN2CCCCC23CNC3)[C@@H](O)[C@H]1O [Compound 80] | 3310 nM | > 10000 | 
6 | Nc1ncnc2c1ncn2[C@@H]1O[C@H](CN2CCC23CCNCC3)[C@@H](O)[C@H]1O [Compound 81] | 355 nM | 8130 | 
7 | Nc1ncnc2c1ncn2[C@@H]1O[C@H](CN2CCCC3(CNC3)C2)[C@@H](O)[C@H]1O [Compound 82] | 126 nM | 2340 | 
8 | Nc1ncnc2c1ncn2[C@@H]1O[C@H](CN2CC3(CCCN3)C2)[C@@H](O)[C@H]1O [Compound 83] | 44700 nM | > 10000 | 
9 | Nc1ncnc2c1ncn2[C@@H]1O[C@H](CN2CC3(CCNC3)C2)[C@@H](O)[C@H]1O [Compound 84] | 77600 nM | > 10000 | 
10 | Nc1ncnc2c1ncn2[C@@H]1O[C@H](CN2CCC3(CNC3)C2)[C@@H](O)[C@H]1O [Compound 86] | 417 nM | > 10000 | 
11 | Nc1ncnc2c1ncn2[C@@H]1O[C@H](CN2CCC23CCNC3)[C@@H](O)[C@H]1O (stereo partly shown) [Compound 87] | 2400 nM | > 10000 | 
12 | Nc1ncnc2c1ncn2[C@@H]1O[C@H](CN2CC3(CCN3)C2)[C@@H](O)[C@H]1O [Compound 88] | 46800 nM | > 10000 | 
13 | Nc1ncnc2c1ncn2[C@@H]1O[C@H](CN2CCC23CNC3)[C@@H](O)[C@H]1O [Compound 89] | 2750 nM | > 10000 | 
14 | Nc1ncnc2c1ncn2[C@@H]1O[C@H](CN2CCCC23CNC3)[C@@H](O)[C@H]1O [Compound 91] | 1230 nM | > 10000 | 
15 | Nc1ncnc2c1ccn2[C@@H]1O[C@H](CN2CCOC3(C2)CN(Cc2ccc(Cl)cc2)C3)[C@@H](O)[C@H]1O [Compound 93] | 3020 nM | ~2450 | 
16 | Nc1ncnn2c([C@@H]3O[C@H](CN4CCOC5(CNC5)C4)[C@@H](O)[C@H]3O)ccc12 [Compound 109] | 2240 nM | > 10000 | 

Next, values leading:

Row | IC50 [1] | IC50 [2] [nM] | pIC50 Assay 2 [2] | SMILES
17 | 53.7 nM | ~3550 |  | NC[C@@H]1COCCN1C[C@H]1O[C@@H](n2ccc3c(N)ncnc32)[C@H](O)[C@@H]1O [Compound 72]
18 | 209 nM | 2450 |  | NC[C@H]1CC(F)(F)CN1C[C@H]1O[C@@H](n2ccc3c(N)ncnc32)[C@H](O)[C@@H]1O [Compound 73b]
19 | 37.2 nM and 35.5 nM | 372 | ~6.51 | CN1CC2(CCCN(C[C@H]3O[C@@H](n4ccc5c(N)ncnc54)[C@H](O)[C@@H]3O)C2)C1 [Compound 74]
20 | 89.1 nM and 32.4 nM and 24.5 nM |  | ~5.65 and ~5.97 | Nc1ncnc2c1ncn2[C@@H]1O[C@H](CN2CCCC23CCNCC3)[C@@H](O)[C@H]1O [Compound 76]
21 | 70800 nM | > 10000 |  | CN1CCC2(CC1)CN(C[C@H]1O[C@@H](n3cnc4c(N)ncnc43)[C@H](O)[C@@H]1O)C2 [Compound 90]
22 | 126 nM | ~1380 |  | CN1CC2(C1)CN(C[C@H]1O[C@@H](n3ccc4c(N)ncnc43)[C@H](O)[C@@H]1O)CCO2 [Compound 92]
23 | > 10000 nM | ~50.1 |  | CC(C)C(=O)O[C@@H]1[C@H](OC(=O)C(C)C)[C@@H](CN2CCCC23CCNCC3)O[C@H]1n1ccc2c(N)ncnc21 [Compound 94]
24 | > 10000 nM |  | 6.94 and 6.95 | CC(C)C(=O)O[C@@H]1[C@H](OC(=O)C(C)C)[C@@H](CN2CCCC23CCN(C)CC3)O[C@H]1n1ccc2c(N)ncnc21 [Compound 95a]
25 | > 100000 nM |  | ~7.34 and 7.05 | CC(C)C(=O)O[C@@H]1[C@H](OC(=O)C(C)C)[C@@H](CN2CCCC23CCN(C)CC3)O[C@H]1n1ccc2c(N)ncnc21 [Compound 95b]
26 | 631 nM | 20.4 |  | CC(C)C(=O)O[C@H]1[C@@H](O)[C@H](n2ccc3c(N)ncnc32)O[C@@H]1CN1CCCC12CCN(C)CC2 [Compound 96]
27 | 174 nM | 204 |  | CC(=O)O[C@H]1[C@@H](O)[C@H](n2ccc3c(N)ncnc32)O[C@@H]1CN1CCCC12CCN(C)CC2 [Compound 99]
28 | > 10000 nM |  | 6.46 | CC(C)C(=O)O[C@@H]1[C@H](OC(=O)C(C)C)[C@@H](CN2CC(F)(F)CC23CCN(C)CC3)O[C@H]1n1ccc2c(N)ncnc21 [Compound 103]
29 | > 10000 nM | 1580 |  | CC(C)C(=O)O[C@@H]1[C@H](OC(=O)C(C)C)[C@@H](CN2CCCC23CCN(C)CC3)O[C@H]1c1ccc2c(N)ncnn12 [Compound 104]
30 | > 10000 nM | 6610 |  | CC(C)C(=O)O[C@@H]1[C@H](OC(=O)C(C)C)[C@@H](CN2CC(F)(F)CC23CCN(C)CC3)O[C@H]1c1ccc2c(N)ncnn12 [Compound 105]
31 | > 10000 nM | 19500 |  | CC(C)C(=O)O[C@@H]1[C@@H](CN2CC(F)(F)CC23CCN(C)CC3)C[C@@H](n2ccc3c(N)ncnc32)[C@@H]1OC(=O)C(C)C [Compound 106]
32 | > 10000 nM | 126 |  | CC(C)C(=O)O[C@@H]1[C@H](OC(=O)C(C)C)[C@@H](CN2CC(F)(F)CC23CCNCC3)O[C@H]1c1ccc2c(N)ncnn12 [Compound 107]
33 | 25.7 nM | 204 |  | Nc1ncnc2c1ccn2[C@@H]1O[C@H](CN2CCOCC23CCNCC3)[C@@H](O)[C@H]1O [Compound 108]
